From ChEMBL document CHEMBL4321810, “Structural Characterization of Agonist Binding to an A3 Adenosine Receptor through Biomolecular Simulations and Mutagenesis Experiments” (J Med Chem, 2019)
Numbering of substitutions follows the chain as printed. The source made the active and inactive calls.

What was measured:
[1] = test system: T1, Adenosine receptor A3 (Homo sapiens), P0DMS8 [N250A]
T1 sequence (whole entry): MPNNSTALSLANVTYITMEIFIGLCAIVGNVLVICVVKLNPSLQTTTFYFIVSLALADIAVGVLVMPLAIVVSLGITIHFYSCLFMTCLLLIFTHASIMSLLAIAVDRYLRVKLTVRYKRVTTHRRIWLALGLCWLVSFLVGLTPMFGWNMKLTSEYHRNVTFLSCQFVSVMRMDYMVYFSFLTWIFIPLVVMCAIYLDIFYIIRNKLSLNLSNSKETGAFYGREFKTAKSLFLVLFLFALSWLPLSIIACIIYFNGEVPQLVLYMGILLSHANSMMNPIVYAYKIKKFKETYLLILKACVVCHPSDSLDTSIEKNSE

[2] = species on record: Homo sapiens
[3] = test system: T2, Adenosine receptor A3 (Homo sapiens), P0DMS8 [F168A]
T2 sequence (whole entry): T1 sequence (whole entry) with F168A, A250N

[4] = test system: T3, Adenosine receptor A3 (Homo sapiens), P0DMS8 [L246A]
T3 sequence (whole entry): T1 sequence (whole entry) with L246A, A250N

[5] = test system: T4, Adenosine receptor A3 (Homo sapiens), P0DMS8 [I268A]
T4 sequence (whole entry): T1 sequence (whole entry) with A250N, I268A

[6] = test system: T5, Adenosine receptor A3 (Homo sapiens), P0DMS8 [S271A]
T5 sequence (whole entry): T1 sequence (whole entry) with A250N, S271A

[7] = test system: T6, Adenosine receptor A3 (Homo sapiens), P0DMS8 [H272A]
T6 sequence (whole entry): T1 sequence (whole entry) with A250N, H272A

Measured: pIC50

CNC(=O)[C@H]1O[C@@H](n2cnc3c(NCc4cccc(I)c4)ncnc32)[C@H](O)[C@@H]1O
inactive: all assays above

CCNC(=O)[C@H]1O[C@@H](n2cnc3c(N)ncnc32)[C@H](O)[C@@H]1O
inactive: all assays above
